Assay results from publication PMC6797481, “Identification of an allosteric binding site on the human glycine transporter, GlyT2, for bioactive lipid analgesics” (eLife, 2019).
Residue numbers refer to the chain shown, from its start.

Assays:
[1] = target: T1, GlyT2 V432A mutant (Homo sapiens, UniProt Q9Y345, V432A); assay: Glycine transport currents, two electrode voltage clamp, oocytes expressing GlyT2 V432A; assay type: cell-based; conditions: GlyT2 V432A; for IC50: greater than maximum concentration applied (footnote a)
T1 construct: expressed in transfected cells; host or cells: Xenopus laevis oocytes (cRNA injection)
T1 sequence (Q9Y345 1-797 V432A): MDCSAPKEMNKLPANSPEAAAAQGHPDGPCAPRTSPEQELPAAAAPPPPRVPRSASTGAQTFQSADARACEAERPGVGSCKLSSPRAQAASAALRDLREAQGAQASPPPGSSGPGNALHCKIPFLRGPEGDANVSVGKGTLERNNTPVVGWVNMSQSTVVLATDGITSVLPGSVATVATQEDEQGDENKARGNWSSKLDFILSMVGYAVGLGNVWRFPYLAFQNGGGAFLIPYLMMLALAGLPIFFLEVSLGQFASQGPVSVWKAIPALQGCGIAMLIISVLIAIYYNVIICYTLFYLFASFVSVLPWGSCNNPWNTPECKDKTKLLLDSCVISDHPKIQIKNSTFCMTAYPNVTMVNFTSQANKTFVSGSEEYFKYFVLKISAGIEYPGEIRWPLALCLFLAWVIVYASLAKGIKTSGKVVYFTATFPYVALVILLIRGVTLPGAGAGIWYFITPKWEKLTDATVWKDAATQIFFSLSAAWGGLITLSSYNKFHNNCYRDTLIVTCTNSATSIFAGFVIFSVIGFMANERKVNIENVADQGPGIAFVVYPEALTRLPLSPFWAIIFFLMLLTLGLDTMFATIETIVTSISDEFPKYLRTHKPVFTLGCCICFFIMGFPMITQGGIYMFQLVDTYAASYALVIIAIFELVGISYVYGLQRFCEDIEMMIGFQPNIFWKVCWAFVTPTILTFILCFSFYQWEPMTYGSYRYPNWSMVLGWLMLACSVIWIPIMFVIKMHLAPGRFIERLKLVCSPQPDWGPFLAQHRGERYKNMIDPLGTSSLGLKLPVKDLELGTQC
Method: (§1) Glycine was first applied to establish maximal transport current.
(§2) Compounds were tested for inhibition of glycine transport on Xenopus laevis oocytes expressing mutant GlyT1 and GlyT2 transporters. n values are in brackets, with measurements taken from at least 2 batches of oocytes.

[2] = tested on: GlyT1 WT; parameters: method as in earlier work; conditions: previously published; cited from earlier work
[3] = target: T2, GlyT2 WT (Homo sapiens, UniProt Q9Y345); parameters: expressed in transfected cells; host or cells: Xenopus laevis oocytes (cRNA injection); conditions: WT GlyT2, previously published, cited from earlier work; for IC50: mean (95% CI); for GlyT2 % max. inhibition: mean ± SEM
T2 sequence (Q9Y345 1-797): T1 sequence (Q9Y345 1-797 V432A) with A432V

[4] = target: T3, GlyT2 Y550L mutant (Homo sapiens, UniProt Q9Y345, Y550L); assay: Glycine transport currents, two electrode voltage clamp, oocytes expressing GlyT2 Y550L; assay type: cell-based; conditions: GlyT2 Y550L
T3 construct: expressed in transfected cells; host or cells: Xenopus laevis oocytes (cRNA injection)
T3 sequence (Q9Y345 1-797 Y550L): T1 sequence (Q9Y345 1-797 V432A) with A432V, Y550L
Method: as §1, §2

[5] = target: T4, GlyT2 P561S mutant (Homo sapiens, UniProt Q9Y345, P561S); assay: Glycine transport currents, two electrode voltage clamp, oocytes expressing GlyT2 P561S; assay type: cell-based; conditions: GlyT2 P561S
T4 construct: expressed in transfected cells; host or cells: Xenopus laevis oocytes (cRNA injection)
T4 sequence (Q9Y345 1-797 P561S): T1 sequence (Q9Y345 1-797 V432A) with A432V, P561S
Method: as §1, §2

[6] = target: T5, GlyT2 W563L mutant (Homo sapiens, UniProt Q9Y345, W563L); assay: Glycine transport currents, two electrode voltage clamp, oocytes expressing GlyT2 W563L; assay type: cell-based; conditions: GlyT2 W563L
T5 construct: expressed in transfected cells; host or cells: Xenopus laevis oocytes (cRNA injection)
T5 sequence (Q9Y345 1-797 W563L): T1 sequence (Q9Y345 1-797 V432A) with A432V, W563L
Method: as §1, §2

[7] = target: T6, GlyT2 F428A mutant (Homo sapiens, UniProt Q9Y345, F428A); assay: Glycine transport currents, two electrode voltage clamp, oocytes expressing GlyT2 F428A; assay type: cell-based; conditions: GlyT2 F428A; mean ± SEM
T6 construct: expressed in transfected cells; host or cells: Xenopus laevis oocytes (cRNA injection)
T6 sequence (Q9Y345 1-797 F428A): T1 sequence (Q9Y345 1-797 V432A) with F428A, A432V
Method: as §1, §2

**Q.** For `CCC=CCCCCCCCCCCCC(=O)NCC(=O)O` [C16 ω3 Glycine], which IC50 [1] is on record?
**A.** Its IC50 is greater than 10 µM.

**Q.** What about the “% Max. inhibition” value ([1]; mean ± SEM) of the same compound?
**A.** The value was 1.0 ± 3.0 (p=0.0193) %.

**Q.** And the IC50 [2]?
**A.** Its IC50 is greater than 10 µM.

**Q.** What about the IC50 [3] of the same compound?
**A.** The IC50 was 0.81 µM.

**Q.** And the “GlyT2 % max. inhibition” value [3]?
**A.** The value was 65.3 ± 1.9%.

**Q.** What does the source list for `CCCCCCCC/C=C\CCCCCCCC(=O)N[C@@H](CO)C(=O)O` [oleoyl l-Serine]?
**A.** IC50 ([4]; greater than maximum concentration applied (footnote a)): > 3 µM; % Max. inhibition ([4]; mean ± SEM): 11.2 ± 1.6 (p=0.0001) %; IC50 ([5]; mean (95% CI)): 0.58 µM; % Max. inhibition ([5]; mean ± SEM): 80.3 ± 7.3 (p=0.7241) %; IC50 ([6]; mean (95% CI)): 0.661 µM; % Max. inhibition ([6]; mean ± SEM): 62.3 ± 5.3 (p=0.3662) %; IC50 [2]: > 3 µM; GlyT2 % max. inhibition [3]: 73.1 ± 5.1%

**Q.** Which results are given for `CCCCCC/C=C\CCCCCCCC(=O)NCC(=O)O` [C16 ω7 Glycine]?
**A.** % Max. inhibition (% inhibition at the highest concentration of inhibitor used) ([1]; footnote b): 44.2 ± 6.3^b (p=0.0009) %; IC50 [1]: > 10 µM; % Max. inhibition [7]: 56.5%; IC50 [2]: > 10 µM; IC50 [3]: 1.5 µM; GlyT2 % max. inhibition [3]: 92.5 ± 1.6%
